Results taken from patent US20070218004A1, “Method of Identifying Therapeutic Compounds Which Can Be Used for the Treatment and/or Prevention of Infections and Diseases Caused by Human Herpesviruses” (priority 2005, published 2007).
Read-outs that look alike come from different tables or passages of the source.

How the values were obtained:
[1] = system: herpes simplex virus type 1 (HSV-1) of the KOS strain; assay type: in vivo, mice of the C57B1/6 lineage
Experimental: All the animals included in the experimental process were 14-week old female mice of the C57B1/6 lineage. Between two and three adult mice were used per analysis group and between 13 and 25 neonates, depending on the availability of animals. […] All the animals went through a quarantine period and were treated with strict precautions against contamination during inoculation and dissection. The animals were intraperitoneally infected with a dose 10^6 pfu of herpes simplex virus type 1 (HSV-1) of the KOS strain (provided by el Dr. L. Carrasco, Centro de Biología Molecular Severo Ochoa, Universidad Autónoma of Madrid). […] The first group of mice was not given any treatment. […] Therefore the antiviral concentration administered per dose and mouse was 0.25 mg (10 mg/kg per mouse, far from the toxicity limit of 80 mg/kg cited above), with a total daily dose of 0.75 mg/day.
The dissected organs in the adult animals were the following: blood, ovaries, adrenal gland, spinal cord, brain, cerebellum and trigeminal ganglia. The entire brain was separated into three rough regions: midbrain, ventricles and cerebral cortex. In the neonates, the dissected organs were blood, spinal cord and encephalon. DNA was extracted using conventional methods (NucleoSpin®, Cat. K3053-2, ClonTech, USA). The viral load of the different organs was analyzed by means of quantitative PCR. […] Primers specific for the sequence of the viral polymerase (pol) gene were used to detect the virus (SEQ. ID. NO: 3 and SEQ. ID. NO: 4) (120 bp amplicon). The PCR conditions were one cycle of 95° C. for 10 minutes, followed by 45 cycles at 95° C. for 30 seconds, 55° C. (for β-actin) or 60° C. (for viral polymerase) for 30 seconds, and a last cycle of 72° C. for 40 seconds. The virus concentration range used for optimizing the quantitative PCR standard curve was expressed as plaque forming units (pfu). For calibrating the β-actin gene, nanograms were used as the unit of this endogenous gene. The identity of the amplified products was checked by analysis of the denaturation curves, by gel electrophoresis and restriction analysis.

HSV-1 = assay: Acyclovir ad libitum in drink, vertical mother-progeny transmission model (Example 3); assay type: in vivo, mice; conditions: acyclovir in drinking water ad libitum, high dose (final daily dose 1.50 mg), from the day of the vaginal plug
Experimental: Assuming that a mouse drinks about 3 ml a day, 2 working dilutions ([…] so that the final daily dose was 0.75 mg, and […] so that the final daily dose was 1.50 mg) were used.

[2] = rabbits; cited from earlier work
[3] = rats; cited from earlier work
[4] = mice; cited from earlier work

Nc1nc2c(ncn2COCCO)c(=O)[nH]1 [acyclovir]
viral loads both in the mothers and in the progeny (quantitative PCR) ([1]; daily dose of 0.75 mg, both administration routes (oral and subcutaneous), FIG. 7): significant reduction | viral levels in all the analyzed organs of the descendants ([1]; oral acyclovir administered to the mothers, 0.75 mg/day): almost complete elimination | mortality of neonates ([1]; oral acyclovir to infected mothers, 0.25 mg per dose three times a day (0.75 mg/day), none of the 17 animals): no mortality | virus levels in blood and in the trigeminal ganglia of the mothers ([1]; oral acyclovir, 0.75 mg/day): virtually undetectable | mortality rate of neonates ([1]; subcutaneous acyclovir to infected mothers, 0.25 mg per dose three times a day (0.75 mg/day), from five days before crossbreeding until birth, 1 out of 25): 4.0% | levels of the virus in all the analyzed organs of the mother and in the progeny's CNS ([1]; subcutaneous acyclovir, 0.75 mg/day): considerably lower levels | survival of the animals (HSV-1): higher | teratogenicity / embryotoxicity [2]: non-teratogenic or embryotoxic | teratogenicity / embryotoxicity [3]: non-teratogenic or embryotoxic | teratogenicity / embryotoxicity [4]: non-teratogenic or embryotoxic
